Molecules are shown by their SMILES.

In this assay the test system is Onchocerca gutturosa Adult Male Worms. The experiment in a line: Onchocerciasis in vitro screening model, worm motility score. It is filed as cell-based. The settings on record: in vitro; Onchocerca gutturosa adult male worms; class A/B/C; read-out: O. gutturosa activity level (IC50 or MED).
For orientation: IC50 means the midpoint of a concentration-inhibition curve. In the case of `CC(=O)N(C)c1cc(C(F)(F)F)cnc1Nc1n[nH]c(-c2cc3c(cn2)N(C(C)C)CC3)n1` [Compound 295, N-(2-(5-(1-isopropyl-2,3-dihydro-1H-pyrro1o[2,3-c]pyridin-5-yl)-1H-1,2,4-triazol-3-ylamino)-5-(trifluoromethyl)pyridin-3-yl)-N-methylacetamide], the concentration for half-maximal inhibition (IC50) was 500 to 5000 nM. The same measure for `CC(C)c1cnc(Nc2nc(-c3cc4c(cn3)OC(C)(C)C4)ns2)cc1C(F)(F)F` [Compound 296, 3-(2,2-dimethyl-2,3-dihydrofuro[2,3-c]pyridin-5-yl)-N-(5-isopropyl-4-(trifluoromethyl)pyridin-2-yl)-1,2,4-thiadiazol-5-amine]: less than 200 nM; for `CC(=O)N(C)c1cnc(Nc2nc(-c3ccc(OC(C)C)cn3)ns2)c(C)c1` [Compound 297, N-(6-(3-(5-isopropoxypyridin-2-yl)-1,2,4-thiadiazol-5-ylamino)-5-methylpyridin-3-yl)-N-methylacetamide]: 200 to 500 nM; for `CC(C)Oc1ccc(-c2nsc(Nc3ncccc3S(=O)(=O)N3CCC3)n2)nc1` [Compound 298, N-(3-(azetidin-1-ylsulfonyl)pyridin-2-yl)-3-(5-isopropoxypyridin-2-yl)-1,2,4-thiadiazol-5-amine]: 200 to 500 nM.

In the case of `CC(=O)N(C)c1cnc(Nc2nc(-c3cc4c(cn3)N(C(C)C)CC4)ns2)c(C(F)(F)F)c1` [Compound 299, N-(6-(3-(1-isopropyl-2,3-dihydro-1H-pyrrolo[2,3-c]pyridin-5-yl)-1,2,4-thiadiazol-5-ylamino)-5-(trifluoromethyl)pyridin-3-yl)-N-methylacetamide], the IC50 is less than 200 nM. The same measure for `CC(=O)N(C)c1cnc(Nc2nc(-c3ccc(OC(C)C)cn3)ns2)c(C(F)(F)F)c1` [Compound 300, N-(6-(3-(5-isopropoxypyridin-2-yl)-1,2,4-thiadiazol-5-ylamino)-5-(trifluoromethyl)pyridin-3-yl)-N-methylacetamide]: 500 to 5000 nM. `CC(=O)N(C)c1cc(C(F)(F)F)cnc1Nc1nc(-c2cc(C(C)C)ccn2)ns1` [Compound 301, N-(2-(3-(4-isopropylpyridin-2-yl)-1,2,4-thiadiazol-5-ylamino)-5-(trifluoromethyl)pyridin-3-yl)-N-methylacetamide]: the 50% inhibitory concentration (IC50) was less than 200 nM. The same measure for `CC(=O)N(C)c1nccnc1Nc1nc(-c2cc3ccn(C(C)C)c3cn2)ns1` [Compound 302, N-(3-(3-(1-isopropyl-1H-pyrrolo[2,3-c]pyridin-5-yl)-1,2,4-thiadiazol-5-ylamino)pyrazin-2-yl)-N-methylacetamide]: less than 200 nM; for `CNc1nccnc1Nc1nc(-c2cc3ccn(C(C)C)c3cn2)ns1` [Compound 303, N2-(3-(1-isopropyl-1H-pyrrolo[2,3-c]pyridin-5-yl)-1,2,4-thiadiazol-5-yl)-N3-methylpyrazine-2,3-diamine]: less than 200 nM. The same measure for `CC(=O)N(C)c1cc(C(F)(F)F)cnc1Nc1nc(-c2cc3c(cn2)CCN3C(C)C)ns1` [Compound 304, N-(2-(3-(1-isopropyl-2,3-dihydro-1H-pyrrolo[3,2-c]pyridin-6-yl)-1,2,4-thiadiazol-5-ylamino)-5-(trifluoromethyl)pyridin-3-yl)-N-methylacetamide]: less than 200 nM. Regarding `Cc1ccnc(Nc2nsc(-c3ncccc3C)n2)c1` [Compound 305, 5-(3-methyl-pyridin-2-yl)-N-(4-methylpyridin-2-yl)-1,2,4-thiadiazol-3-amine], the IC50 was less than 200 nM. As for `CC(=O)N(C)c1cc(C(F)(F)F)cnc1Nc1nc(-c2cc(OC3CCOCC3)ccn2)ns1` [Compound 306, N-methyl-N-(2-(3-(4-(tetrahydro-2H-pyran-4-yloxy)pyridin-2-yl)-1,2,4-thiadiazol-5-ylamino)-5-(trifluoromethyl)pyridin-3-yl)acetamide], the IC50 was less than 200 nM. In the case of `CN1CCc2cc(-c3nsc(Nc4ncccc4S(=O)(=O)N(C)C)n3)ncc21` [Compound 307, N,N-dimethyl-2-(3-(1-methyl-2,3-dihydro-1H-pyrrolo[2,3-c]pyridin-5-yl)-1,2,4-thiadiazol-5-ylamino) pyridine-3-sulfonamide], the IC50 lay within 500 to 5000 nM.

The values above are taken from patent US11505548B2, “Heterocyclic compounds and their use for treatment of helminthic infections and diseases” (Celgene Corporation, priority 2019, dated 2022).
